The values below come from PubChem BioAssay (NCI).

Among the test systems are HCT-116 colon; NCI-H460 lung; OVCAR-8 ovarian; NCI-H522 lung; PC-3 prostate; A549 NSCLC; 786-0 renal; SK-MEL-2 melanoma; UACC-257 melanoma; HL-60(TB) leukemia.
Assay in all cases: inhibition of tumour cell growth, NCI panel, 48 h

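Five concentrations, 48 hours, 96-well plates. GI50 = concentration required for 50% inhibition of growth. TGI: concentration producing complete growth inhibition.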

Take `O=C(Nc1sccc1S(=O)(=O)c1ccccc1)c1ccccc1`: the TGI was > 100 µM with HCT-116 colon; > 31.6 µM in the assay with NCI-H460 lung; > 100 µM in the assay with OVCAR-8 ovarian; > 100 µM with NCI-H522 lung; > 100 µM in the assay on PC-3 prostate; > 100 µM in the assay with A549 NSCLC. Also, the TGI with 786-0 renal, with SK-MEL-2 melanoma and with UACC-257 melanoma was > 100 µM in each case.

For `CN(C)c1cccc2c1C(=O)C=CC21CCc2ccc(N(C)C)c3c(N(C)C)ccc1c23` (stereo not drawn), the TGI with HCT-116 colon is 22.9 µM; with NCI-H460 lung, 28.7 µM; in the assay with OVCAR-8 ovarian, 53.2 µM; in the assay on PC-3 prostate, 27.4 µM; in the assay on A549 NSCLC, 42.3 µM; in the assay on 786-0 renal, 26.1 µM. Moreover, the figures for the TGI in the assay with UACC-257 melanoma and in the assay on HL-60(TB) leukemia were 25.1 µM and 27.3 µM, respectively.

Turning to `O=C(Nc1nnc(-c2c(Cl)c(Cl)c(Cl)c(Cl)c2-c2nc3cc(C(=O)c4ccccc4)ccc3[nH]2)o1)c1ccc(Cl)cc1`, the TGI in the assay on HCT-116 colon, with OVCAR-8 ovarian, with PC-3 prostate, in the assay with A549 NSCLC, in the assay with 786-0 renal and with SK-MEL-2 melanoma was > 100 µM throughout. In addition, the TGI in the assay on UACC-257 melanoma and in the assay on HL-60(TB) leukemia was > 100 µM throughout.

With `COc1ccc(C(=O)N/N=C/c2c(C)n(C)n(-c3ccccc3)c2=O)cc1`, the TGI with HCT-116 colon, with NCI-H460 lung, in the assay with OVCAR-8 ovarian, in the assay with NCI-H522 lung, with A549 NSCLC and with 786-0 renal was > 100 µM throughout. Besides, the TGI in the assay with SK-MEL-2 melanoma, with UACC-257 melanoma and in the assay with HL-60(TB) leukemia was > 100 µM throughout.

For the compound `COc1nc2c(c(=O)n1C)N=C(c1ccc(Cl)cc1)CC(c1ccccc1)N2` (stereo not drawn), the TGI in the assay on HCT-116 colon was 63.5 µM; in the assay on NCI-H460 lung, 28.1 µM; with OVCAR-8 ovarian, > 100 µM; in the assay on NCI-H522 lung, 44.9 µM; with PC-3 prostate, > 100 µM; with A549 NSCLC, > 100 µM. The TGI in the assay on 786-0 renal was > 100 µM; with SK-MEL-2 melanoma, 42.9 µM; in the assay with UACC-257 melanoma it was 67.9 µM.

Take `O=C(OC/C=C1C=C(OC(=O)c2ccccc2)/C(=N/N(C(=O)c2ccccc2)c2ccccc2)O\1)c1ccccc1`: the TGI was 18.3 µM in the assay with HCT-116 colon; 20 µM in the assay on NCI-H460 lung; 23.6 µM in the assay on OVCAR-8 ovarian; 22.6 µM in the assay with A549 NSCLC; 2.95 µM in the assay with 786-0 renal; 27 µM in the assay with SK-MEL-2 melanoma. Besides, the TGI in the assay with UACC-257 melanoma worked out at 19.7 µM; with HL-60(TB) leukemia, 2.29 µM. For the same compound, the GI50 in the assay with HL-60(TB) leukemia is < 0.01 µM.

In the case of `CCCN(CCC)c1c([N+](=O)[O-])cc(C(=O)N(CCO)CCO)cc1[N+](=O)[O-]`, the TGI in the assay on HCT-116 colon, with NCI-H460 lung, in the assay with OVCAR-8 ovarian, in the assay on NCI-H522 lung, in the assay with A549 NSCLC and in the assay with 786-0 renal was > 100 µM throughout. For the same compound, the TGI in the assay with SK-MEL-2 melanoma, in the assay on UACC-257 melanoma and in the assay on HL-60(TB) leukemia was > 100 µM throughout.

Regarding `CCOC(=O)C1([Se]c2ccccc2)CCCC1=O` (stereo not drawn), the TGI was 30.9 µM in the assay with HCT-116 colon; > 100 µM with NCI-H460 lung; 30.5 µM with OVCAR-8 ovarian; 15.5 µM in the assay with NCI-H522 lung; > 100 µM in the assay on A549 NSCLC; 28.4 µM with 786-0 renal. Moreover, the TGI with SK-MEL-2 melanoma was > 100 µM; in the assay with UACC-257 melanoma it was > 100 µM; in the assay on HL-60(TB) leukemia it was 23.5 µM.

Take `COc1ccc2c(c1)c(=O)c1c(NCCN(C)C)ccc3nnn2c31`: the TGI in the assay on HCT-116 colon came out at 13.4 µM; with NCI-H460 lung, 8.54 µM; in the assay with OVCAR-8 ovarian it was 13.6 µM; in the assay on NCI-H522 lung, 15.8 µM; in the assay with A549 NSCLC, 12.8 µM; with 786-0 renal it was 14.8 µM. The figures for the TGI with SK-MEL-2 melanoma, in the assay on UACC-257 melanoma and with HL-60(TB) leukemia were 19.7 µM, 17 µM and 5.51 µM, respectively.

On to `O=S(=O)(O)c1ccc2c(N=Nc3ccc(Cl)cc3)c(O)ccc2c1`, for which the TGI with HCT-116 colon, with OVCAR-8 ovarian, with NCI-H522 lung, in the assay on PC-3 prostate, with A549 NSCLC and with 786-0 renal was > 100 µM throughout. Also, the TGI in the assay on SK-MEL-2 melanoma and in the assay with UACC-257 melanoma was > 100 µM in each case.

With `CCn1c2ccccc2c2ccc(C3C(C(=O)OC)=C(C)NC(C)=C3C(=O)OC)cc21`, the TGI with HCT-116 colon, in the assay on NCI-H460 lung, in the assay with OVCAR-8 ovarian, in the assay on A549 NSCLC, in the assay on 786-0 renal and with UACC-257 melanoma was > 100 µM in each case. In addition, the TGI with HL-60(TB) leukemia was > 100 µM.

Turning to `CC(=O)N(O)Cc1ccccc1`, the TGI in the assay with HCT-116 colon, with NCI-H460 lung, in the assay on OVCAR-8 ovarian, in the assay on NCI-H522 lung, in the assay with A549 NSCLC and in the assay with 786-0 renal was > 100 µM in each case. Further, the TGI with UACC-257 melanoma and in the assay on HL-60(TB) leukemia was > 100 µM throughout.

On to `NC1Cc2ccccc2OC1=O` (stereo not drawn), for which the TGI with NCI-H460 lung, in the assay with OVCAR-8 ovarian, in the assay with NCI-H522 lung, in the assay on PC-3 prostate, with A549 NSCLC and in the assay with 786-0 renal was > 100 µM throughout. Besides, the TGI in the assay on SK-MEL-2 melanoma and with UACC-257 melanoma was > 100 µM in each case.

On to `COc1ccc2c3c1OC1C34CCN(C)C(C2)C4=CC(I)C1(OC)OC` (stereo not drawn), for which the TGI in the assay with HCT-116 colon came to 14.6 µM; in the assay with NCI-H460 lung, 28 µM; with OVCAR-8 ovarian, 16.1 µM; in the assay on NCI-H522 lung, 15.3 µM; in the assay on PC-3 prostate, 23.2 µM; with A549 NSCLC, 54.8 µM. In addition, the TGI is 14 µM in the assay on 786-0 renal, 30.3 µM in the assay with SK-MEL-2 melanoma and 26.9 µM with UACC-257 melanoma.

With `C#CC1(O)CCC2[C@@H]3CCc4cc(Oc5nc(F)nc(-c6c7ccccc7cn6C)n5)ccc4C3CC[C@@]21C` (stereo partly drawn), the TGI with HCT-116 colon, with NCI-H460 lung, in the assay with OVCAR-8 ovarian, with NCI-H522 lung, in the assay with A549 NSCLC and in the assay on 786-0 renal was > 100 µM each time. Further, the TGI in the assay with SK-MEL-2 melanoma, in the assay on UACC-257 melanoma and with HL-60(TB) leukemia was > 100 µM in each case.
